In patent publication US8591878B2, “Therapeutic compounds” (Merck Sharp & Dohme Corp., priority 2008, dated 2013):
Read-outs that look alike come from different tables or passages of the source.

Test system: subgenomic HCV replicon in Huh-7 cells
Assay: Cell-Based HCV Replication Assay (replicon, NS3 Cell-ELISA)
Parameters: species or system hepatitis C virus (HCV)
Conditions: Hepatitis C virus
Excerpt: Another suitable assay is the cellular Replicon or rheplisa assay described as follows:
Cell-Based HCV Replication Assay
Cell clones that stably maintain subgenomic HCV replicon were obtained by transfecting Huh-7 cells with an RNA replicon identical to I377neo/NS3-3′/wt described by V. Lohmann et al., 285 SCIENCE 110 (Jul. 2, 1999) (EMBL-GENBANK No. AJ242652), followed by selection with neomycin sulfate (G418). Viral replication was monitored by measuring the expression of the NS3 protein by an ELISA assay performed directly on cells grown in 96-well microtiter plates (Cell-ELISA) using the anti-NS3 monoclonal antibody 10E5/24 (as described in International Patent Application Publication WO 02/59321). Cells were seeded into 96 well plates at a density of 10^4 cells per well in a final volume of 0.1 ml of DMEM/10% FCS. Two hours after plating, 50 μl of DMEM/10% FCS containing a 3× concentration of inhibitor were added, cells were incubated for 96 hours and then fixed for 10 minutes with ice-cold isopropanol. Each condition was tested in duplicate and average absorbance values were used for calculations. The cells were washed twice with PBS, blocked with 5% non-fat dry milk in PBS+0.1% TRITON X-100+0.02% SDS (PBSTS) and then incubated o/n at 4° C. with the 10E5/24 mab diluted in Milk/PBSTS. After washing 5 times with PBSTS, the cells were incubated for 3 hours at room temperature with Fe-specific anti-mouse IgG conjugated to alkaline phosphatase (Sigma), diluted in Milk/PBSTS. After washing again as above, the reaction was developed with p-nitrophenyl phosphate disodium substrate (Sigma) and the absorbance at 405/620 nm read at intervals. For calculations, we used data sets where samples incubated without inhibitors had absorbance values comprised between 1 and 1.5. The inhibitor concentration that reduced by 50% the expression of NS3 (IC50) was calculated by fitting the data to the Hill equation, Fraction inhibition=1−(Ai−b)/(A0−b)=[I]^n/([I]+IC50) where: • Ai=absorbance value of HBI10 cells supplemented with the indicated inhibitor concentration. • A0=absorbance value of HBI10 cells incubated without inhibitor. • b=absorbance value of Huh-7 cells plated at the same density in the same microtiter plates and incubated without inhibitor. • n=Hill coefficient.

[1] = Huh-7 cells with subgenomic HCV replicon, NS3 expression by Cell-ELISA, 96 hours incubation, read-out: Cell based HCV Replication Assay-IC50
[2] = Huh-7, 96 h, read-out: Cell based HCV Replication Assay-IC50

Structure (SMILES)	IC50 [1]	also measured
C=C[C@@H]1C[C@]1(NC(=O)[C@@H]1CC2CN1C(=O)[C@H](C1CCCC1)NC(=O)N1CCCC(C1)OC/C=C/Cn1cc(C)c3c4ccccc4nc(c31)O2)C(=O)NS(=O)(=O)C1CC1 (stereo in doubt) [Example 15, (3S,5S,8S,18E)-8-cyclopentyl-N-((1R,2S)-1-{[(cyclopropylsulfonyl)amino]carbonyl}-2-vinylcyclopropyl)-23-methyl-7,10-dioxo-2,16-dioxa-6,9,11,21,31-pentaazahexacyclo [19.10.1.1^3,6.1^11,15.0^24,32.0^25,30] tetratriaconta-1(31),18,22,24(32),25,27,29-heptaene-5-carboxamide]	5 nM	
C=CC1C[C@]1(NC(=O)[C@@H]1C[C@@H]2CN1C(=O)[C@H](C1CCCCC1)NC(=O)N1CCC(CC1)OCCC/C=C/c1cc3c(cc(OCC)nc3cc1OC)O2)C(=O)NS(=O)(=O)C1CC1 (stereo in doubt) [Example 32, (3R,5S,8S,19E)-8-cyclohexyl-N-((1R,2R)-1-{[(cyclopropylsulfonyl)amino]carbonyl}-2-vinylcyclopropyl)-26-ethoxy-22-methoxy-7,10-dioxo-2,15-dioxa-6,9,11,25-tetraazapentacyclo [19.6.2.2^11,14.1^3,6.0^24,28] dotriaconta-1(27),19,21,23,25,28-hexaene-5-carboxamide]	10 nM	
C=CC1C[C@]1(NC(=O)[C@@H]1C[C@@H]2CN1C(=O)[C@H](C1CCCCC1)NC(=O)N1CCC(CC1)OCCCCCc1cc3c(cc(OCC)nc3cc1OC)O2)C(=O)NS(=O)(=O)C1CC1 (stereo in doubt) [Example 34, (3R,5S,8S)-8-cyclohexyl-N-((1R,2R)-1-{[(cyclopropylsulfonyl)amino]carbonyl}-2-vinylcyclopropyl)-26-ethoxy-22-methoxy-7,10-dioxo-2,15-dioxa-6,9,11,25-tetraazapentacyclo [19.6.2.2^11,14.1^3,6.0^24,28] dotriaconta-1(27),21,23,25,28-pentaene-5-carboxamide]	7 nM	
C=C[C@@H]1C[C@]1(NC(=O)[C@@H]1C[C@@H]2CN1C(=O)[C@H](C1CCCCC1)NC(=O)N1CCC[C@@H](C1)OCCCc1cc3c(cc(OCC)nc3cc1OC)O2)C(=O)NS(=O)(=O)C1CC1 [Example 1, (3R,5S,8S,15S)-8-Cyclohexyl-N-((1R,2S)-1-{[(cyclopropylsulfonyl)amino]carbonyl}-2-vinylcyclopropyl)-25-ethoxy-21-methoxy-7,10-dioxo-2,16-dioxa-6,9,11,24-tetraazapentacyclo[18.6.2.1^3,6.1^11,15.0^23,27]triaconta-1(27),20,22,23,25,27-hexaene-5-carboxamide]		IC50 (Huh-7 replicon cells, NS3 expression by Cell-ELISA, 96 hours, read-out: Cell-based HCV Replication Assay: IC50): 4 nM
C=C[C@@H]1C[C@]1(NC(=O)[C@@H]1C[C@@H]2CN1C(=O)[C@H](C(C)(C)C)NC(=O)N1CCC[C@@H]1CC/C=C/c1cccc3c1CN(C3)C(=O)O2)C(=O)NS(=O)(=O)C1CC1 [Example 3, (1R,12E,16S,23S,26S)-23-tert-butyl-N-((1R,2S)-1-{[(cyclopropylsulfonyl)amino]carbonyl}-2-vinylcyclopropyl)-3,21,24-trioxo-2-oxa-4,20,22,25-tetraazapentacyclo [23.2.1.1^4,7.0^6,11.0^16,20] nonacosa-6,8,10,12-tetraene-26-carboxamide]	16 nM	
C=C[C@@H]1C[C@]1(NC(=O)[C@@H]1C[C@@H]2CN1C(=O)[C@H](C(C)(C)C)NC(=O)N1CCC[C@H]1CC/C=C/c1cccc3c1CN(C3)C(=O)O2)C(=O)NS(=O)(=O)C1CC1 [Example 4, (1R,12E,16R,23S,26S)-23-tert-butyl-N-((1R,2S)-1-{[(cyclopropylsulfonyl)amino]carbonyl}-2-vinylcyclopropyl)-3,21,24-trioxo-2-oxa-4,20,22,25-tetraazapentacyclo [23.2.1.1^4,7.0^6,11.0^16,20] nonacosa-6,8,10,12-tetraene-26-carboxamide]	260 nM	
C=C[C@@H]1C[C@]1(NC(=O)[C@@H]1C[C@@H]2CN1C(=O)[C@H](C(C)(C)C)NC(=O)N1CCC[C@H]1CCCCc1cccc3c1CN(C3)C(=O)O2)C(=O)NS(=O)(=O)C1CC1 [Example 5, (1R,16R,23S,26S)-23-tert-butyl-N-((1R,2S)-1-{[(cyclopropylsulfonyl)amino]carbonyl}-2-vinylcyclopropyl)-3,21,24-trioxo-2-oxa-4,20,22,25-tetraazapentacyclo [23.2.1.1^4,7.0^6,11.0^16,20] nonacosa-6,8,10-triene-26-carboxamide]		IC50 [2]: 170 nM
C=C[C@@H]1C[C@]1(NC(=O)[C@@H]1C[C@@H]2CN1C(=O)[C@H](C1CCCCC1)NC(=O)N1CCC[C@H](CCCCc3cc4c(cc(-c5ccccc5)nc4cc3OC)O2)C1)C(=O)NS(=O)(=O)C1CC1 [Example 6, (3R,5S,8S,15S)-8-cyclohexyl-N-((1R,2S)-1-{[(cyclopropylsulfonyl)amino]carbonyl}-2-vinylcyclopropyl)-21-methoxy-7,10-dioxo-25-phenyl-2-oxa-6,9,11,24-tetraazapentacyclo [18.6.2.1^3,6.1^11,15.0^23,27] triaconta-1(27),20,22,23,25,27-hexaene-5-carboxamide]	24 nM	
C=C[C@@H]1C[C@]1(NC(=O)[C@@H]1C[C@@H]2CN1C(=O)[C@H](C1CCCCC1)NC(=O)N1CCC[C@@H](CCCCc3cc4c(cc(-c5ccccc5)nc4cc3OC)O2)C1)C(=O)NS(=O)(=O)C1CC1 [Example 7, (3R,5S,8S,15R)-8-cyclohexyl-N-((1R,2S)-1-{[(cyclopropylsulfonyl)amino]carbonyl}-2-vinylcyclopropyl)-21-methoxy-7,10-dioxo-25-phenyl-2-oxa-6,9,11,24-tetraazapentacyclo [18.6.2.1^3,6.1^11,15.0^23,27] triaconta-1(27),20,22,23,25,27-hexaene-5-carboxamide]		IC50 [2]: 8 nM
C=C[C@@H]1C[C@]1(NC(=O)[C@@H]1C[C@@H]2CN1C(=O)[C@H](C1CCCCC1)NC(=O)N1CCC[C@H](C1)OCCCc1cc3c(cc(-c4ccccc4)nc3cc1OC)O2)C(=O)NS(=O)(=O)C1CC1 [Example 8, (3R,5S,8S,15R)-8-cyclohexyl-N-((1R,2S)-1-{[(cyclopropylsulfonyl)amino]carbonyl}-2-vinylcyclopropyl)-21-methoxy-7,10-dioxo-25-phenyl-2,16-dioxa-6,9,11,24-tetraazapentacyclo [18.6.2.1^3,6.1^11,15.0^23,27] triaconta-1(27),20,22,23,25,27-hexaene-5-carboxamide]	5 nM	
C=C[C@@H]1C[C@]1(NC(=O)[C@@H]1C[C@@H]2CN1C(=O)[C@H](C1CCCCC1)NC(=O)N1CCC[C@@H](C1)OCCCc1cc3c(cc(-c4ccccc4)nc3cc1OC)O2)C(=O)NS(=O)(=O)C1CC1 [Example 9, (3R,5S,8S,15S)-8-cyclohexyl-N-((1R,2S)-1-{[(cyclopropylsulfonyl)amino]carbonyl}-2-vinylcyclopropyl)-21-methoxy-7,10-dioxo-25-phenyl-2,16-dioxa-6,9,11,24-tetraazapentacyclo [18.6.2.1^3,6.1^11,15.0^23,27] triaconta-1(27),20,22,23,25,27-hexaene-5-carboxamide]	7 nM	
C=C[C@@H]1C[C@]1(NC(=O)[C@@H]1C[C@@H]2CN1C(=O)[C@H](C1CCCCC1)NC(=O)N1CCC[C@@H](C1)OCCCc1cc3c(nccc3cc1OC)O2)C(=O)NS(=O)(=O)C1CC1 [Example 10, (3R,5S,8S,15S)-8-cyclohexyl-N-((1R,2S)-1-{[(cyclopropylsulfonyl)amino]carbonyl}-2-vinylcyclopropyl)-21-methoxy-7,10-dioxo-2,16-dioxa-6,9,11,26-tetraazapentacyclo [18.6.2.1^3,6.1^11,15.0^23,27] triaconta-1(26),20,22,24,27-pentaene-5-carboxamide]	7 nM	
C=C[C@@H]1C[C@]1(NC(=O)[C@@H]1C[C@@H]2CN1C(=O)[C@H](C1CCCCC1)NC(=O)N1CCC[C@H](C1)OCCCc1cc3c(nccc3cc1OC)O2)C(=O)NS(=O)(=O)C1CC1 [Example 11, (3R,5S,8S,15R)-8-cyclohexyl-N-((1R,2S)-1-{[(cyclopropylsulfonyl)amino]carbonyl}-2-vinylcyclopropyl)-21-methoxy-7,10-dioxo-2,16-dioxa-6,9,11,26-tetraazapentacyclo [18.6.2.1^3,6.1^11,15.0^23,27] triaconta-1(26),20,22,24,27-pentaene-5-carboxamide]		IC50 [2]: 6 nM
